# From patent publication US4195093A, “Furoyl- and thenoyl-aryloxyalkyl carboxylic acid derivatives, their preparation and their use in therapy” (Albert Rolland S.A., priority 1977, dated 1980)
# Counter-ions that a name gives are not always drawn. Like-named read-outs stand apart in the source and are kept apart here.
# Legend:
# phenol red in the blood = assay: Uricosuric activity: retention of phenol red in the blood of rats; type: in vivo; conditions: Rattus norvegicus, read-out: Maximum Ratio measured (phenol red in blood, treated to non-treated)
# Protocol: The uricosuric activity of the compounds has been shown by the method described by H. C. SCARBOROUGH and G. R. McKINNEY (J. Med. Pharm. Chem. (1962) 5 175) as well as by E. KREPPEL (Med. Exptl. (1959) 1 285); phenol red is administered intravenously to rats and the development of the concentration of this colourant in their blood is studied as a function of time. It is known that rats, which one hour before the beginning of the experiment have received an uricosuric agent, show, in comparison with non-treated animals, retention of phenol red in the blood.
# The ratio is that of the concentrations of phenol red found in the blood of animals which have received the test compounds at the dose indicated at the specified time to the concentrations for non-treated animals.
# [1] = Acute toxicity orally in mice (method of BLISS); conditions: mouse, in vivo
# Protocol: The acute toxicity of the new compounds has been studied in mice orally, according to the method of BLISS (Quart. J. Pharm. Pharmacol. (1938) 2 192-216); with the exception of the compounds in Examples 3 and 13, which have an LD50 in the region of 700 mg/kg, all the other compounds have an LD50 above 1000 mg/kg.
# [2] = Diuretic ability in mice (urine volume ratio treated/control); type: in vivo
# Protocol: The diuretic ability of the novel compounds according to the invention has been studied in mice. It is expressed in Table III in the form of a ratio of the volume of urine for the treated animals received during 2 and 4 hours after administration (at the indicated dose) of the test compound to the volume measured under the same conditions for the control animals.
# [3] = Solubility in aqueous medium (statement); type: physicochemical
# [4] = 0.75 h, 45 minutes after injection of the colourant
# [5] = 1 h, 60 minutes after injection of the colourant
# [6] = 0.25 h, 15 minutes after injection of the colourant
smiles,measurement,setting,value
"O=C(O)COc1ccc(C(=O)c2cccs2)c2ccccc12 [Example 1, [4-(2-Thenoyl)-1-naphthyloxy]-acetic acid]",response vs control in vivo at 50 mg/kg,phenol red in the blood; [4],100%
same,response vs control in vivo at 100 mg/kg,phenol red in the blood; [5],121%
"O=C(O)COc1ccc(C(=NO)c2cccs2)c2ccccc12 [Example 2, [4-(2-Thienyl-hydroxyiminomethyl)-1-naphthyloxy]-acetic acid]",response vs control in vivo at 100 mg/kg,phenol red in the blood; [4],77%
"O=C(O)COc1ccc(C(=O)c2ccoc2)c2ccccc12 [Example 3, [4-(3-Furoyl)-1-naphthlyloxy]-acetic acid]",LD50,"[1]; mice, oral, method of BLISS",~700 mg/kg
same,"Diuretic Ability, 0 to 2 hours (ratio of urine volume treated/control)",[2]; 20 mg/kg p.o.,1.53
same,"Diuretic Ability, 0 to 4 hours (ratio of urine volume treated/control)",[2]; 20 mg/kg p.o.,1.31
same,"Diuretic Ability, 0 to 2 hours (ratio of urine volume treated/control)",[2]; 50 mg/kg p.o.,1.48
same,"Diuretic Ability, 0 to 4 hours (ratio of urine volume treated/control)",[2]; 50 mg/kg p.o.,1.44
O=C(O)COc1c(Br)cc(C(=O)c2cccs2)c2ccccc12 [Example 6],response vs control in vivo at 50 mg/kg,phenol red in the blood; [5],116%
Cc1ccc(C(=O)c2ccc(OCC(=O)O)c3ccccc23)s1 [Example 7],"Diuretic Ability, 0 to 2 hours (ratio of urine volume treated/control)",[2]; 50 mg/kg p.o.,2.01
same,"Diuretic Ability, 0 to 4 hours (ratio of urine volume treated/control)",[2]; 50 mg/kg p.o.,1.70
same,response vs control in vivo at 100 mg/kg,phenol red in the blood; [6],44%
O=C(O)COc1ccc(C(=O)c2ccsc2)c2ccccc12 [Example 10],"Diuretic Ability, 0 to 2 hours (ratio of urine volume treated/control)",[2]; 200 mg/kg p.o.,1.38
same,"Diuretic Ability, 0 to 4 hours (ratio of urine volume treated/control)",[2]; 200 mg/kg p.o.,1.77
same,response vs control in vivo at 100 mg/kg,"phenol red in the blood; 0.5 h, 30 minutes after injection of the colourant",53%
O=C(O)COc1ccc(C(=O)c2cc3ccccc3o2)c2ccccc12 [Example 12],response vs control in vivo at 50 mg/kg,phenol red in the blood; [6],51%
O=C(O)CCOc1ccc(C(=O)c2cccs2)c2ccccc12 [Example 13],LD50,"[1]; mice, oral, method of BLISS",~700 mg/kg
O=C(O)CCOc1ccc(C(=O)c2ccco2)c2ccccc12 [Example 14],response vs control in vivo at 75 mg/kg,"phenol red in the blood; 1 h, dose 75 mg/kg, 60 minutes after injection of the colourant",80%
"CCc1oc2ccccc2c1C(=O)c1cc(I)c(O)c(I)c1 [benziodarone, 2-ethyl-3-(4-hydroxy-3,5-diiodobenzoyl)-benzo[b]furane, reference compound]",LD50,[1]; po,1400 mg/kg
same,response vs control in vivo at 100 mg/kg,phenol red in the blood; [4],53%
O=C(O)COc1ccc(C(=O)c2cccs2)c2ccccc12 [tri(hydroxymethyl)methylamine salt],solubility in aqueous medium,[3],particularly useful because of its solubility in aqueous medium
